2 molecules from US6323230A, “Use of nitrogen heterocyclic aromatic derivatives in the topical treatment of the epithelial tissues diseases” (Geange Ltd., priority 1997, dated 2001) can be followed below.

Structures are written as SMILES.

The nature of series [1]: Percutaneous absorption / systemically bioavailable dose from cream. The settings on record: cream 0.05-0.1%. It is filed as in vivo.
Series [2] deals with ulcerous cholitis (colon). Kind of series: Animal models of ulcerous cholitis. It counts as in vivo, Wistar rats. The settings on record: oral, daily, 1 mg/kg, in sesame oil 2 mg/mL. The method, then:
Dealing with the activity of the compounds object of the present invention, on the inflammatory diseases of the low intestine, some compounds, namely V, VI, X and XI, were tested in animal models of ulcerous cholitis (Wallace J. L. et al., Eur. J. Pharmacol. 257, 249 (1994); Renter B. K. et al. J. Clin. Invest. 98, 2076-2085 (1996).
In particular, compound VI, when administered daily by oral route to Wistar rats, dissolved in sesame oil at the concentration of 2 mg/mL , at the dose of 1 mg/kg, did show a good activity in favouring colon ulcers repair, in re-establishing the normal thickness of the intestinal wall and in decreasing the granulocytes infiltration proper of an inflammatory condition.

For the molecule `CCc1ccccc1-c1n[nH]c(-c2cccc(OC)c2)n1` [Compound XIII], in series [1] (about 50 g, whole body surface, 25-50 mg), the “maximum systemically bioavailable dose” value lay in the range of 0.05 to 0.1 mg/kg. In addition, the Fa in series [1] (in vivo, topical or ocular, of the applied dose) was about 10%.

Consider `COc1cccc(-c2nc(-c3ccccc3CO)n[nH]2)c1` [VI], for which, in series [2], the “decreasing the granulocytes infiltration” value is on record as “good activity”, the “favouring colon ulcers repair” value is on record as “good activity” and the “re-establishing the normal thickness of the intestinal wall” value is “good activity”.
